According to ChEMBL document CHEMBL1201862, “PubChem BioAssay data set” (2004):
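Grown in 96-well plates, cells were treated for 48 hours with each compound at five concentrations. Insufficient inhibition: endpoint recorded as highest concentration tested. At the GI50, growth is halved.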 The source made the active and inactive calls. Cut-off read from the data, not from the text of the source: active = GI50 up to about 1.1 µM and inactive = higher.

Experiments:
Experiment in all cases: NCI-60 cell line screen, 48 h
786-0 = tested on: 786-0
CCRF-CEM = tested on: CCRF-CEM
HCC 2998 = tested on: HCC 2998
M14 = tested on: M14
MOLT-4 = tested on: MOLT-4
Malme-3M = tested on: Malme-3M
NCI-H226 = tested on: NCI-H226
NCI-H23 = tested on: NCI-H23
OVCAR-5 = tested on: OVCAR-5
RXF 393 = tested on: RXF 393
SK-MEL-5 = tested on: SK-MEL-5
SK-OV-3 = tested on: SK-OV-3
SNB-75 = tested on: SNB-75
TK-10 = tested on: TK-10
A549 = tested on: A549
SK-MEL-2 = tested on: SK-MEL-2
A498 = tested on: A498

Row | Compound | GI50 (786-0) | GI50 (CCRF-CEM) | GI50 (HCC 2998) | GI50 (M14) | GI50 (MOLT-4) | GI50 (Malme-3M) | GI50 (NCI-H226) | GI50 (NCI-H23) | GI50 (OVCAR-5) | GI50 (RXF 393) | GI50 (SK-MEL-5) | GI50 (SK-OV-3) | GI50 (SNB-75) | GI50 (TK-10) | GI50 (A549) | GI50 (SK-MEL-2) | GI50 (A498)
1 | COc1ccc(-c2cc(O)c3cc(Cl)ccc3n2)cc1 | > 100 µM (inactive) | > 100 µM (inactive) | > 100 µM (inactive) | > 100 µM (inactive) | > 100 µM (inactive) | > 100 µM (inactive) | > 100 µM (inactive) | > 100 µM (inactive) | > 100 µM (inactive) | > 100 µM (inactive) | > 100 µM (inactive) | > 100 µM (inactive) | > 100 µM (inactive) | > 100 µM (inactive) |  |  | 
2 | COc1ccc(-c2ccccc2)c(N/N=C2\CCCNC2=O)c1 | 85.7 µM (inactive) |  | > 100 µM (inactive) | > 100 µM (inactive) | > 100 µM (inactive) | > 100 µM (inactive) | > 100 µM (inactive) | > 100 µM (inactive) | > 100 µM (inactive) | 11 µM (inactive) | 28.2 µM (inactive) | 96.2 µM (inactive) | 32.8 µM (inactive) | > 100 µM (inactive) | 12.9 µM (inactive) | > 100 µM (inactive) | 
3 | O=C(CCc1nnc2s/c(=C\c3ccccc3Cl)c(=O)n12)Nc1cc(Cl)ccc1Cl | > 100 µM (inactive) | > 100 µM (inactive) | > 100 µM (inactive) | > 100 µM (inactive) | > 100 µM (inactive) | > 100 µM (inactive) | > 100 µM (inactive) | > 100 µM (inactive) | > 100 µM (inactive) | > 100 µM (inactive) | > 100 µM (inactive) | > 100 µM (inactive) |  | > 100 µM (inactive) | > 100 µM (inactive) | > 100 µM (inactive) | 
4 | O=[N+]([O-])c1nccn1COCCF | > 100 µM (inactive) | > 100 µM (inactive) |  | > 100 µM (inactive) | > 100 µM (inactive) | > 100 µM (inactive) | > 100 µM (inactive) | > 100 µM (inactive) | > 100 µM (inactive) |  | > 100 µM (inactive) | > 100 µM (inactive) | 64.6 µM (inactive) | > 100 µM (inactive) | > 100 µM (inactive) | > 100 µM (inactive) | 
5 | [O-]/N=[N+](/[O-])C1CCCCC1=[N+]1CCOCC1 (configuration not stated) | > 100 µM (inactive) | > 100 µM (inactive) |  | > 100 µM (inactive) | > 100 µM (inactive) | > 100 µM (inactive) | > 100 µM (inactive) | > 100 µM (inactive) | > 100 µM (inactive) |  |  | > 100 µM (inactive) |  | > 100 µM (inactive) | > 100 µM (inactive) | > 100 µM (inactive) | > 100 µM (inactive)
6 | CN1c2ccccc2N(C)C23N(C)c4ccccc4N(C)C12N(C)c1ccccc1N3C (configuration not stated) | > 100 µM (inactive) | > 100 µM (inactive) | > 100 µM (inactive) | > 100 µM (inactive) | > 100 µM (inactive) | > 100 µM (inactive) | > 100 µM (inactive) | > 100 µM (inactive) | > 100 µM (inactive) | > 100 µM (inactive) | > 100 µM (inactive) |  | 35.6 µM (inactive) | > 100 µM (inactive) | > 100 µM (inactive) | > 100 µM (inactive) | > 100 µM (inactive)
7 | CC(C)OP(=O)(OC(C)C)/C(=N/Nc1ccc([N+](=O)[O-])cc1)NN | > 100 µM (inactive) | > 100 µM (inactive) | > 100 µM (inactive) | > 100 µM (inactive) | 61.9 µM (inactive) | > 100 µM (inactive) | 0.592 µM (active) | 55.2 µM (inactive) | > 100 µM (inactive) |  | 35.7 µM (inactive) |  | 83.2 µM (inactive) | > 100 µM (inactive) | 75.3 µM (inactive) | > 100 µM (inactive) | > 100 µM (inactive)
8 | Cc1ccc(C2C(Cl)C(=O)N2NC(=O)c2ccc(N)cc2)cc1 (configuration not stated) | 15.5 µM (inactive) | 7.73 µM (inactive) | > 100 µM (inactive) | 18.7 µM (inactive) | 11.4 µM (inactive) | 17.1 µM (inactive) | 27.4 µM (inactive) | 16 µM (inactive) | 24.3 µM (inactive) |  | 15.2 µM (inactive) | 20.1 µM (inactive) | 47.6 µM (inactive) | 43.6 µM (inactive) | 27.7 µM (inactive) | 1.33 µM (inactive) | 22.5 µM (inactive)
9 | O=C1c2ccccc2C(=O)c2nc3c(O)cccc3cc21 | 6.38 µM (inactive) |  | 35.9 µM (inactive) | 6.34 µM (inactive) | 3.38 µM (inactive) | 53.5 µM (inactive) | 74.5 µM (inactive) | > 100 µM (inactive) | 89.7 µM (inactive) | > 100 µM (inactive) | 3.6 µM (inactive) |  | 68.1 µM (inactive) | 74.5 µM (inactive) | 17.8 µM (inactive) | > 100 µM (inactive) | 25.9 µM (inactive)
10 | CC(C)(C)/N=C/N1C=Cc2nc3ccccc3cc2C1 | > 100 µM (inactive) | > 100 µM (inactive) | > 100 µM (inactive) | > 100 µM (inactive) | > 100 µM (inactive) | > 100 µM (inactive) |  | > 100 µM (inactive) | > 100 µM (inactive) | > 100 µM (inactive) | > 100 µM (inactive) | > 100 µM (inactive) | > 100 µM (inactive) | > 100 µM (inactive) | > 100 µM (inactive) | > 100 µM (inactive) | > 100 µM (inactive)
11 | CN1CCc2cc(O)c3cc2C1Cc1ccc(cc1)Oc1cc(ccc1O)CC1c2c(cc4c(c2O3)OCO4)CCN1C (configuration not stated) | 58.2 µM (inactive) | 27.7 µM (inactive) | 19.5 µM (inactive) | 16.8 µM (inactive) | 24.3 µM (inactive) |  | 22.9 µM (inactive) | > 100 µM (inactive) | 27 µM (inactive) | 11.2 µM (inactive) | 18.9 µM (inactive) |  | 13.4 µM (inactive) | 24.2 µM (inactive) | 45.7 µM (inactive) | 16.1 µM (inactive) | 
12 | C1=C(c2ccccc2)SC(N2CCCCC2)S1 (configuration not stated) |  | 95.5 µM (inactive) |  | > 100 µM (inactive) | 81.5 µM (inactive) | 88.7 µM (inactive) | > 100 µM (inactive) | > 100 µM (inactive) | > 100 µM (inactive) | > 100 µM (inactive) |  | > 100 µM (inactive) | 55.6 µM (inactive) | > 100 µM (inactive) |  | > 100 µM (inactive) | > 100 µM (inactive)
13 | Cc1ccc(NCC2(/N=C/c3ccccc3)OC(CO)C(O)C2O)cc1 (configuration not stated) | 49.5 µM (inactive) | 31.6 µM (inactive) | 91.2 µM (inactive) | 40.9 µM (inactive) | 40.1 µM (inactive) | 37.2 µM (inactive) | > 100 µM (inactive) | 54.1 µM (inactive) | > 100 µM (inactive) |  | 23.3 µM (inactive) |  | 26.2 µM (inactive) | > 100 µM (inactive) | 44 µM (inactive) | 31 µM (inactive) | 
14 | CC1=CC2CC(C)C1(C)CCc1ccoc12 (configuration not stated) | > 100 µM (inactive) | > 100 µM (inactive) | > 100 µM (inactive) | > 100 µM (inactive) | > 100 µM (inactive) | > 100 µM (inactive) |  | > 100 µM (inactive) | > 100 µM (inactive) | > 100 µM (inactive) | > 100 µM (inactive) | > 100 µM (inactive) | > 100 µM (inactive) | > 100 µM (inactive) | > 100 µM (inactive) | > 100 µM (inactive) | > 100 µM (inactive)
15 | O=C(CC1(O)C(=O)Nc2ccc(Br)cc21)c1cccc([N+](=O)[O-])c1 (configuration not stated) | 42.7 µM (inactive) | 24.1 µM (inactive) | 65 µM (inactive) | 48.8 µM (inactive) | 24.9 µM (inactive) | > 100 µM (inactive) | 26.9 µM (inactive) | 43.9 µM (inactive) | > 100 µM (inactive) | 23.8 µM (inactive) | > 10 µM (inactive) | > 100 µM (inactive) | 26.7 µM (inactive) | > 100 µM (inactive) | > 100 µM (inactive) | 54.7 µM (inactive) | 
16 | COC(=O)c1cc(CC(C)C)c2c(c1)[nH]c1ccccc12 | > 100 µM (inactive) | > 100 µM (inactive) | 70.8 µM (inactive) | > 100 µM (inactive) | 34 µM (inactive) | > 100 µM (inactive) | 28.7 µM (inactive) | 49 µM (inactive) | > 100 µM (inactive) |  | 78.7 µM (inactive) | > 100 µM (inactive) | 18.2 µM (inactive) | > 100 µM (inactive) | > 100 µM (inactive) | > 100 µM (inactive) | > 100 µM (inactive)
17 | O=C(O)C1c2ccccc2C(C(=O)O)c2ccccc21 (configuration not stated) | > 100 µM (inactive) | > 100 µM (inactive) | > 100 µM (inactive) | > 100 µM (inactive) | > 100 µM (inactive) | > 100 µM (inactive) |  |  | > 100 µM (inactive) | > 100 µM (inactive) | > 100 µM (inactive) | > 100 µM (inactive) | > 100 µM (inactive) | > 100 µM (inactive) | > 100 µM (inactive) | > 100 µM (inactive) | > 100 µM (inactive)
18 | O=C(c1cc2ccccc2[nH]1)C(O)(c1cc2ccccc2[nH]1)c1cc2ccccc2[nH]1 | > 246 µM (inactive) | > 246 µM (inactive) | > 246 µM (inactive) |  | > 246 µM (inactive) | > 246 µM (inactive) | 50.9 µM (inactive) | 112 µM (inactive) | > 246 µM (inactive) | > 246 µM (inactive) | > 246 µM (inactive) | > 246 µM (inactive) |  | > 246 µM (inactive) | > 246 µM (inactive) | > 246 µM (inactive) | 
